Reference: US20060030054A1, “Fluorescent probe” (Daiichi Pure Chemicclas Co., LTD., of Tokyo, Japan, priority 2002, published 2006)

Legend:
[1] = Fluorescence intensity change against pH change under co-presence of sodium; type: physicochemical; settings: 0.2 M Tris-phosphate buffers at various pH, 500 mM sodium perchlorate, DMF 0.1%
Method: Fluorescence intensity changes of the compound obtained in Example 7 and Sodium Green tetra(tetramethylammonium)salt (Molecular Probes Inc.) against pH change were studied under co-presence of sodium. Measurements were conducted in 0.2 M Tris-phosphate buffers at various pH containing 500 mM of sodium perchlorate using dimethylformamide (0.1%) as a co-solvent. The compound obtained in Example 7 was measured at excitation wavelength of 504 nm and fluorescence wavelength of 522 nm and Sodium Green tetra(tetramethylammonium)salt was measured at excitation wavelength of 508 nm and fluorescence wavelength of 533 nm.

[2] = Complex formation constant from fluorescence intensity change on addition of potassium; type: binding; settings: 0.2 M Tris-hydrochloride buffer pH 7.5, potassium chloride, DMF 0.1%, compound 3 μM; read-out: Complex formation constant K^+
Method: (§1) Fluorescence intensity changes of the compound obtained in Example 5 and the compound obtained in Example 7 above were measured with addition of sodium, magnesium, and potassium. Measurements were conducted in 0.2 M Tris-perchlorate buffers at pH 7.5 containing various concentrations of sodium perchlorate and magnesium perchlorate using dimethylformamide (0.1%) as co-solvent when sodium and magnesium were added, and in 0.2 M Tris-hydrochloride buffers at pH 7.5 containing various concentrations of potassium chloride using dimethylformamide (0.1%) as co-solvent when potassium was added. The final concentrations of the compounds obtained in Example 5 and Example 7 were adjusted to be 3 μM. The compound obtained in Example 5 was measured at excitation wavelength of 492 nm and fluorescence wavelength of 513 nm and the compound obtained in Example 7 was measured at excitation wavelength of 504 nm and fluorescence wavelength of […].

[3] = Complex formation constant from fluorescence intensity change on addition of magnesium; type: binding; settings: 0.2 M Tris-perchlorate buffer pH 7.5, magnesium perchlorate, DMF 0.1%, compound 3 μM
Method: as §1

[4] = Complex formation constant from fluorescence intensity change on addition of sodium; type: binding; settings: 0.2 M Tris-perchlorate buffer pH 7.5, sodium perchlorate, DMF 0.1%, compound 3 μM; read-out: Complex formation constant Na^+
Method: as §1

Susceptibility of fluorescence intensity to pH change compared with Sodium Green tetra(tetramethylammonium)salt [1]: less susceptible to a pH change
Kd [2]: 410 µM
Complex formation constant Mg^+ [3]: Unmeasurable
Kd [4]: 320 µM
Structure (SMILES): Cc1cc2c(cc1-c1c3cc(Cl)c(=O)cc-3oc3cc(O)c(Cl)cc13)OCCOCCOCCOCCO2 [Example 7]
